# According to publication PMC5218480 (PLoS ONE, 2017):
# System: MV-4-11 cells
# Test: Gene expression microarray analysis (Affymetrix PrimeView) and GSEA
# Format: cell-based, human
# Parameters: RFU PODN (11730768_x_at) / Fold change /veh PODN (11730768_x_at) / RFU LINC00158 (11744669_a_at) / Fold change /veh LINC00158 (11744669_a_at) / RFU DUSP10 (11751237_a_at) / Fold change /veh DUSP10 (11751237_a_at) / RFU ID3 (11757404_x_at) / Fold change /veh ID3 (11757404_x_at) / RFU PLEKHG5 (11737974_s_at) / Fold change /veh PLEKHG5 (11737974_s_at) / RFU LRRC4B (11730491_at) / Fold change /veh LRRC4B (11730491_at) / RFU GIMAP4 (11747438_a_at) / Fold change /veh GIMAP4 (11747438_a_at) / RFU KRT8 (11758183_x_at) / Fold change /veh KRT8 (11758183_x_at) / RFU CNN1 (11734310_a_at) / Fold change /veh CNN1 (11734310_a_at) / RFU VPS37D (11726825_at) / Fold change /veh VPS37D (11726825_at) / RFU C10orf10 (11716522_x_at) / Fold change /veh C10orf10 (11716522_x_at) / RFU KIR2DL2 /// KIR2DL4 /// KIR2DL5A /// KIR2DL5B /// KIR2DS1 /// KIR2DS2 /// KIR2DS3 /// KIR2DS4 /// KIR3DL3 /// KIR3DL3 /// KIR3DS1 (11738374_at) / Fold change /veh KIR2DL2 /// KIR2DL4 /// KIR2DL5A /// KIR2DL5B /// KIR2DS1 /// KIR2DS2 /// KIR2DS3 /// KIR2DS4 /// KIR3DL3 /// KIR3DL3 /// KIR3DS1 (11738374_at) / RFU C1QL1 (11718748_at) / Fold change /veh C1QL1 (11718748_at) / RFU TMPRSS4 (11747572_a_at) / Fold change /veh TMPRSS4 (11747572_a_at) / RFU HAMP (11756126_x_at) / Fold change /veh HAMP (11756126_x_at) / RFU RNFT2 (11725882_a_at) / Fold change /veh RNFT2 (11725882_a_at) / RFU NR4A2 (11747474_a_at) / Fold change /veh NR4A2 (11747474_a_at) / RFU ABCC12 (11746883_a_at) / Fold change /veh ABCC12 (11746883_a_at) / RFU TMEM136 (11760407_x_at) / Fold change /veh TMEM136 (11760407_x_at) / RFU CLDN22 /// WWC2 (11732394_at) / Fold change /veh CLDN22 /// WWC2 (11732394_at) / RFU HLA-DPB1 (11760878_x_at) / Fold change /veh HLA-DPB1 (11760878_x_at) / RFU SPINT1 (11716480_a_at) / Fold change /veh SPINT1 (11716480_a_at) / RFU GAP43 (11754022_s_at) / Fold change /veh GAP43 (11754022_s_at) / RFU A4GNT (11735810_at) / Fold change /veh A4GNT (11735810_at) / RFU PRB3 (11715151_x_at) / Fold change /veh PRB3 (11715151_x_at) / RFU TUBB4B (11761932_at) / Fold change /veh TUBB4B (11761932_at) / RFU CAPN14 (11732068_a_at) / Fold change /veh CAPN14 (11732068_a_at) / RFU TMCC2 (11721928_a_at) / Fold change /veh TMCC2 (11721928_a_at) / RFU IRGQ (11745062_a_at) / Fold change /veh IRGQ (11745062_a_at) / RFU FAM174B (11720279_a_at) / Fold change /veh FAM174B (11720279_a_at) / RFU TMPRSS4 (11748680_a_at) / Fold change /veh TMPRSS4 (11748680_a_at) / RFU FAM212B (11763350_a_at) / Fold change /veh FAM212B (11763350_a_at) / RFU PLEKHG5 (11743358_a_at) / Fold change /veh PLEKHG5 (11743358_a_at) / RFU ZSCAN30 (11745921_a_at) / Fold change /veh ZSCAN30 (11745921_a_at) / RFU CMKLR1 (11741424_a_at) / Fold change /veh CMKLR1 (11741424_a_at) / RFU LOC101060620 /// MAPK8IP1 (11723275_at) / Fold change /veh LOC101060620 /// MAPK8IP1 (11723275_at) / RFU SPTSSB (11747773_x_at) / Fold change /veh SPTSSB (11747773_x_at) / RFU PRSS12 (11739890_at) / Fold change /veh PRSS12 (11739890_at) / RFU BIN1 (11741810_x_at) / Fold change /veh BIN1 (11741810_x_at) / RFU WNT11 (11732464_a_at) / Fold change /veh WNT11 (11732464_a_at) / RFU C10orf10 (11716521_a_at) / Fold change /veh C10orf10 (11716521_a_at) / RFU C5orf56 (11738089_at) / Fold change /veh C5orf56 (11738089_at) / RFU CYB561 (11721691_x_at) / Fold change /veh CYB561 (11721691_x_at) / RFU ANKRD19P (11752326_a_at) / Fold change /veh ANKRD19P (11752326_a_at) / RFU OR2T12 /// OR2T33 /// OR2T8 (11738714_s_at) / Fold change /veh OR2T12 /// OR2T33 /// OR2T8 (11738714_s_at) / RFU VCAN (11748164_a_at) / Fold change /veh VCAN (11748164_a_at) / RFU JSRP1 (11732532_at) / Fold change /veh JSRP1 (11732532_at) / RFU KRTAP10-11 (11738290_x_at) / Fold change /veh KRTAP10-11 (11738290_x_at) / RFU MYO3A (11730013_a_at) / Fold change /veh MYO3A (11730013_a_at) / RFU EBF3 (11725865_a_at) / Fold change /veh EBF3 (11725865_a_at) / RFU CAMK2N1 (11719241_x_at) / Fold change /veh CAMK2N1 (11719241_x_at) / RFU C5orf56 (11738088_a_at) / Fold change /veh C5orf56 (11738088_a_at) / RFU OLFML3 (11715873_a_at) / Fold change /veh OLFML3 (11715873_a_at) / RFU LOC100653217 /// NTM (11731650_a_at) / Fold change /veh LOC100653217 /// NTM (11731650_a_at) / RFU MAPK11 (11762145_a_at) / Fold change /veh MAPK11 (11762145_a_at) / RFU FIZ1 (11724087_x_at) / Fold change /veh FIZ1 (11724087_x_at) / RFU OASL (11726364_x_at) / Fold change /veh OASL (11726364_x_at) / RFU SOX15 (11748057_x_at) / Fold change /veh SOX15 (11748057_x_at) / RFU CD79A (11719716_a_at) / Fold change /veh CD79A (11719716_a_at) / RFU HIST1H1D (11736915_at) / Fold change /veh HIST1H1D (11736915_at) / RFU CASKIN2 (11723855_a_at) / Fold change /veh CASKIN2 (11723855_a_at) / RFU LOC730098 (11760151_x_at) / Fold change /veh LOC730098 (11760151_x_at) / RFU OR4N2 (11742367_at) / Fold change /veh OR4N2 (11742367_at) / RFU PRRT2 (11749266_a_at) / Fold change /veh PRRT2 (11749266_a_at) / RFU SNX32 (11753110_a_at) / Fold change /veh SNX32 (11753110_a_at) / RFU CDHR5 (11726645_a_at) / Fold change /veh CDHR5 (11726645_a_at) / RFU RCAN1 (11760418_a_at) / Fold change /veh RCAN1 (11760418_a_at) / RFU FAM167A (11723789_a_at) / Fold change /veh FAM167A (11723789_a_at) / RFU FAM26E (11764081_at) / Fold change /veh FAM26E (11764081_at) / RFU ISYNA1 (11749810_s_at) / Fold change /veh ISYNA1 (11749810_s_at) / RFU ACY1 (11761880_at) / Fold change /veh ACY1 (11761880_at) / RFU 11764098_at / Fold change /veh 11764098_at / RFU SAMD14 (11745864_x_at) / Fold change /veh SAMD14 (11745864_x_at) / RFU NPB (11741838_a_at) / Fold change /veh NPB (11741838_a_at) / RFU TMPRSS6 (11731388_a_at) / Fold change /veh TMPRSS6 (11731388_a_at) / RFU KRTAP10-2 (11738614_at) / Fold change /veh KRTAP10-2 (11738614_at) / RFU ARHGAP8 /// PRR5-ARHGAP8 (11727945_x_at) / Fold change /veh ARHGAP8 /// PRR5-ARHGAP8 (11727945_x_at) / RFU KRTAP5-7 /// NADSYN1 (11734609_at) / Fold change /veh KRTAP5-7 /// NADSYN1 (11734609_at) / RFU RASL12 (11751679_a_at) / Fold change /veh RASL12 (11751679_a_at) / RFU CDKN2B (11736163_a_at) / Fold change /veh CDKN2B (11736163_a_at) / RFU PRF1 (11729649_at) / Fold change /veh PRF1 (11729649_at) / RFU, ZNF638 /// ZNF638-IT1 / Fold change vs veh, ZNF638 /// ZNF638-IT1 / RFU, PANK3 / Fold change vs veh, PANK3 / RFU, SH3YL1 / Fold change vs veh, SH3YL1 / RFU, ZEB2 / Fold change vs veh, ZEB2 / RFU, NRIP1 / Fold change vs veh, NRIP1 / RFU, PTTG1IP / Fold change vs veh, PTTG1IP / RFU, CAPN2 / Fold change vs veh, CAPN2 / RFU, MED14 / Fold change vs veh, MED14 / RFU, SNORA58 / Fold change vs veh, SNORA58 / RFU, C1orf63 / Fold change vs veh, C1orf63 / RFU, LRRFIP1 / Fold change vs veh, LRRFIP1 / RFU, NDUFAF7 / Fold change vs veh, NDUFAF7 / RFU, SLC12A2 / Fold change vs veh, SLC12A2 / RFU, IBTK / Fold change vs veh, IBTK / RFU, ESF1 / Fold change vs veh, ESF1 / Fold change vs veh, TMEM50B / RFU, TAOK1 / Fold change vs veh, TAOK1 / RFU, ACBD3 / Fold change vs veh, ACBD3 / RFU, TMA16 / Fold change vs veh, TMA16 / RFU, RWDD3 / Fold change vs veh, RWDD3 / RFU, BCAT1 / Fold change vs veh, BCAT1 / RFU, EDEM3 / Fold change vs veh, EDEM3 / RFU, TMEM33 / Fold change vs veh, TMEM33 / RFU, WDR75 / Fold change vs veh, WDR75 / RFU, AHCTF1 / Fold change vs veh, AHCTF1 / RFU, TFRC / Fold change vs veh, TFRC / RFU, ZDHHC17 / Fold change vs veh, ZDHHC17 / RFU, NOM1 / Fold change vs veh, NOM1 / RFU, ARL8B / Fold change vs veh, ARL8B / RFU, ZBTB11 / Fold change vs veh, ZBTB11 / RFU, TAMM41 / Fold change vs veh, TAMM41 / RFU, KIAA1704 /// LOC100996395 / Fold change vs veh, KIAA1704 /// LOC100996395 / RFU, ING1 / Fold change vs veh, ING1 / RFU, TRMT61B / Fold change vs veh, TRMT61B / RFU, FUBP3 / Fold change vs veh, FUBP3 / RFU, TP53 / Fold change vs veh, TP53 / RFU, TNKS2 / Fold change vs veh, TNKS2 / RFU, ZFP14 / Fold change vs veh, ZFP14 / RFU, ACTR2 / Fold change vs veh, ACTR2 / RFU, PPP3R1 / Fold change vs veh, PPP3R1 / RFU, PIK3R1 / Fold change vs veh, PIK3R1 / RFU, HNRNPA1 / Fold change vs veh, HNRNPA1 / RFU, RNF170 / Fold change vs veh, RNF170 / RFU, ZNF28 / Fold change vs veh, ZNF28 / RFU, RNGTT / Fold change vs veh, RNGTT / RFU, OGT / Fold change vs veh, OGT / RFU, BRD1 / Fold change vs veh, BRD1 / RFU, MARS / Fold change vs veh, MARS / RFU, ZNF655 / Fold change vs veh, ZNF655 / RFU, FAHD1 / Fold change vs veh, FAHD1 / RFU, BDP1 / Fold change vs veh, BDP1 / RFU, LRRCC1 / Fold change vs veh, LRRCC1 / RFU, ARID1A / Fold change vs veh, ARID1A / RFU, ZNF146 / Fold change vs veh, ZNF146 / RFU, ZNF330 / Fold change vs veh, ZNF330 / RFU, GPN3 / Fold change vs veh, GPN3 / RFU, C9orf123 / Fold change vs veh, C9orf123 / RFU, N4BP2L2 / Fold change vs veh, N4BP2L2 / RFU, ARFIP1 / Fold change vs veh, ARFIP1 / RFU, FAM179B / Fold change vs veh, FAM179B / RFU, BCL10 / Fold change vs veh, BCL10 / RFU, UHRF1BP1L / Fold change vs veh, UHRF1BP1L / RFU, BET1 / Fold change vs veh, BET1 / RFU, CNOT2 / Fold change vs veh, CNOT2 / RFU, ZNF268 / Fold change vs veh, ZNF268 / Fold change vs veh, ZNF507 / RFU, DGCR2 / Fold change vs veh, DGCR2 / RFU, WDSUB1 / Fold change vs veh, WDSUB1 / Fold change vs veh, HSP90B1 /// MIR3652 / RFU, ADSS / Fold change vs veh, ADSS / RFU, GK / Fold change vs veh, GK / RFU, ZNF148 / Fold change vs veh, ZNF148 / RFU, TAF9 / Fold change vs veh, TAF9 / RFU, SLC1A5 / Fold change vs veh, SLC1A5 / RFU, SLMO2 / Fold change vs veh, SLMO2 / RFU, ABCC4 / Fold change vs veh, ABCC4 / RFU, LOC101060439 /// RAP1B / Fold change vs veh, LOC101060439 /// RAP1B / RFU, RFX7 / Fold change vs veh, RFX7 / RFU, GTPBP10 / Fold change vs veh, GTPBP10 / RFU, CNEP1R1 / Fold change vs veh, CNEP1R1 / RFU, BIVM-ERCC5 /// ERCC5 / Fold change vs veh, BIVM-ERCC5 /// ERCC5 / RFU, ILF3 / Fold change vs veh, ILF3 / RFU 11762660_at / Fold change /veh 11762660_at / RFU VCAN (11757783_s_at) / Fold change /veh VCAN (11757783_s_at) / RFU DDX43 (11728927_at) / Fold change /veh DDX43 (11728927_at) / RFU KRT8 (11758188_x_at) / Fold change /veh KRT8 (11758188_x_at) / RFU NKD1 (11759106_at) / Fold change /veh NKD1 (11759106_at) / RFU SRD5A1 (11742802_a_at) / Fold change /veh SRD5A1 (11742802_a_at) / RFU TPSAB1 /// TPSB2 (11721975_s_at) / Fold change /veh TPSAB1 /// TPSB2 (11721975_s_at) / RFU GSTM3 (11746129_a_at) / Fold change /veh GSTM3 (11746129_a_at) / RFU IL23R (11737362_x_at) / Fold change /veh IL23R (11737362_x_at) / RFU TMEM51 (11727254_a_at) / Fold change /veh TMEM51 (11727254_a_at) / RFU PIWIL2 (11732686_x_at) / Fold change /veh PIWIL2 (11732686_x_at) / RFU ORM1 (11744905_x_at) / Fold change /veh ORM1 (11744905_x_at) / RFU CCDC152 (11743942_at) / Fold change /veh CCDC152 (11743942_at) / RFU ECM1 (11717891_a_at) / Fold change /veh ECM1 (11717891_a_at) / RFU IL23R (11748794_a_at) / Fold change /veh IL23R (11748794_a_at) / RFU TNFAIP8L3 (11732012_x_at) / Fold change /veh TNFAIP8L3 (11732012_x_at) / RFU MBOAT4 (11741988_at) / Fold change /veh MBOAT4 (11741988_at) / RFU 11764193_at / Fold change /veh 11764193_at / RFU TMEM53 (11763286_at) / Fold change /veh TMEM53 (11763286_at) / RFU MAGEB2 (11727129_at) / Fold change /veh MAGEB2 (11727129_at) / RFU TMEM200A (11744735_a_at) / Fold change /veh TMEM200A (11744735_a_at) / RFU CCDC152 (11751479_a_at) / Fold change /veh CCDC152 (11751479_a_at) / RFU FAM211A (11726209_a_at) / Fold change /veh FAM211A (11726209_a_at) / RFU RGS16 (11746705_a_at) / Fold change /veh RGS16 (11746705_a_at) / RFU VCAN (11755009_s_at) / Fold change /veh VCAN (11755009_s_at) / RFU RHOB (11743442_s_at) / Fold change /veh RHOB (11743442_s_at) / RFU RGS16 (11720943_a_at) / Fold change /veh RGS16 (11720943_a_at) / RFU RGS16 (11720944_at) / Fold change /veh RGS16 (11720944_at) / RFU, VPS4B / Fold change vs veh, VPS4B / RFU, CREB1 / Fold change vs veh, CREB1 / RFU, DNAJC13 / Fold change vs veh, DNAJC13 / RFU, GNAQ / Fold change vs veh, GNAQ / RFU, CDK5R1 / Fold change vs veh, CDK5R1 / RFU, ZRANB3 / Fold change vs veh, ZRANB3 / RFU, CUL4A / Fold change vs veh, CUL4A / RFU, CCNY / Fold change vs veh, CCNY / RFU, UFL1 / Fold change vs veh, UFL1 / RFU, COG3 / Fold change vs veh, COG3 / RFU, DIAPH2 / Fold change vs veh, DIAPH2 / RFU, SKA2 / Fold change vs veh, SKA2 / RFU, AFF3 / Fold change vs veh, AFF3 / RFU, LMF1 / Fold change vs veh, LMF1 / RFU, IPO11 / Fold change vs veh, IPO11 / RFU, DFFB / Fold change vs veh, DFFB / RFU, FOXP1 / Fold change vs veh, FOXP1 / RFU, CARD8 / Fold change vs veh, CARD8 / RFU, STRN3 / Fold change vs veh, STRN3 / RFU, ADK / Fold change vs veh, ADK / RFU, RASSF2 / Fold change vs veh, RASSF2 / RFU, WIPF1 / Fold change vs veh, WIPF1 / RFU, LARP1B / Fold change vs veh, LARP1B / RFU, RASA1 / Fold change vs veh, RASA1 / RFU, RB1 / Fold change vs veh, RB1 / RFU, PPFIA1 / Fold change vs veh, PPFIA1 / RFU, MAT2A / Fold change vs veh, MAT2A / RFU, CCT5 / Fold change vs veh, CCT5 / RFU, WDR92 / Fold change vs veh, WDR92 / RFU, CUX1 / Fold change vs veh, CUX1 / RFU, TTC7A / Fold change vs veh, TTC7A / RFU, TMEM135 / Fold change vs veh, TMEM135 / RFU, DEPTOR / Fold change vs veh, DEPTOR / RFU, CPM / Fold change vs veh, CPM / RFU, DNAJB6 / Fold change vs veh, DNAJB6 / RFU, CACNA2D3 / Fold change vs veh, CACNA2D3 / RFU, DTX4 / Fold change vs veh, DTX4 / RFU, TFCP2 / Fold change vs veh, TFCP2 / RFU, GMCL1 /// GMCL1P1 / Fold change vs veh, GMCL1 /// GMCL1P1 / RFU, AEBP2 / Fold change vs veh, AEBP2 / RFU, SNHG1 /// SNORD22 /// SNORD25 /// SNORD26 /// SNORD27 /// SNORD28 /// SNORD29 /// SNORD31 / Fold change vs veh, SNHG1 /// SNORD22 /// SNORD25 /// SNORD26 /// SNORD27 /// SNORD28 /// SNORD29 /// SNORD31 / Fold change (Aza/veh), C12orf56 (ProbeSet 11735607_a_at) / Fold change (ACY-1035/veh), C12orf56 (ProbeSet 11735607_a_at) / Fold change (Aza/veh), FGFR1OP (ProbeSet 11751329_s_at) / Fold change (ACY-1035/veh), FGFR1OP (ProbeSet 11751329_s_at) / Fold change (Aza/veh), VPS36 (ProbeSet 11739960_a_at) / Fold change (ACY-1035/veh), VPS36 (ProbeSet 11739960_a_at) / RFU SYPL1 (11715823_x_at) / Fold change /veh SYPL1 (11715823_x_at) / RFU IGFBP7 (11715501_s_at) / Fold change /veh IGFBP7 (11715501_s_at) / RFU REEP3 (11722064_at) / Fold change /veh REEP3 (11722064_at) / RFU IGLL1 (11728026_x_at) / Fold change /veh IGLL1 (11728026_x_at): dose or concentration left out as unconfirmed
# Conditions: ProbeSet 11732281_s_at; LIST D
structure (smiles),measurement,value
Nc1ccc(-c2cccs2)cc1NC(=O)c1ccc2c(c1)cc(C1CC1)n2CCN1CCOCC1 [ACY-1035],"RFU, FOXP1",243.86 RFU
